Results from article PMC11748363, “Antimicrobial and Antiproliferative Properties of 2‐Phenyl‐N‐(Pyridin‐2‐yl)acetamides” (Chemical Biology & Drug Design, 2025).
Converted amounts (≈) assume the structure as drawn. Like-named read-outs stand apart in the source and are kept apart here.

Columns and labels:
[1] = test system: Mycobacterium tuberculosis H37Ra; test: Antimycobacterial microdilution broth MIC (resazurin), Mtb H37Ra; assay type: cell-based; conditions: Mycobacterium tuberculosis, H37RA
[2] = test system: Mycolicibacterium smegmatis DSM 43465; test: Antimycobacterial microdilution broth MIC (resazurin), M. smegmatis; assay type: cell-based; conditions: DSM43465, read-out: MIC M. smegmatis
[3] = test system: Mycolicibacterium aurum DSM 43999; test: Antimycobacterial microdilution broth MIC (resazurin), M. aurum; assay type: cell-based; conditions: DSM43999, read-out: MIC M. aurum
HepG2 cell line = test: Cytotoxicity CellTiter 96, HepG2; assay type: cell-based, human; conditions: Homo sapiens, HepG2, 24 h, 24 h incubation; ^c compound precipitated in the testing medium; ^d over the limit of tested concentrations
[4] = test system: Staphylococcus aureus CCM 4223, ATCC 29213; test: Antibacterial microdilution broth MIC, SA; assay type: cell-based; conditions: Staphylococcus aureus
[5] = test system: Staphylococcus aureus subsp. aureus CCM 4750, ATCC 43300 (MRSA); test: Antibacterial microdilution broth MIC, MRSA; assay type: cell-based; conditions: Staphylococcus aureus
[6] = test system: Staphylococcus epidermidis CCM 4418, ATCC 12228; test: Antibacterial microdilution broth MIC, SE; assay type: cell-based
[7] = test system: Enterococcus faecalis CCM 4224, ATCC 29212; test: Antibacterial microdilution broth MIC, EF; assay type: cell-based
[8] = test system: Escherichia coli CCM 3954, ATCC 25922; test: Antibacterial microdilution broth MIC, EC; assay type: cell-based
[9] = test system: Acinetobacter baumannii DSM 30007, ATCC 19606; test: Antibacterial microdilution broth MIC, ACI; assay type: cell-based
[10] = test system: Pseudomonas aeruginosa CCM 3955, ATCC 27853; test: Antibacterial microdilution broth MIC, PA; assay type: cell-based
[11] = test system: Candida albicans CCM 8320, ATCC 24433; test: Antifungal microdilution broth MIC, CA
[12] = test system: Candida krusei CCM 8271, ATCC 6258; test: Antifungal microdilution broth MIC, CK; conditions: Pichia kudriavzevii
[13] = test system: Candida parapsilosis CCM 8260, ATCC 22019; test: Antifungal microdilution broth MIC, CP; conditions: Lodderomyces parapsilosis
[14] = test system: Candida tropicalis CCM 8264, ATCC 750; test: Antifungal microdilution broth MIC, CT
[15] = test system: Aspergillus fumigatus ATCC 204305; test: Antifungal microdilution broth MIC, AF
[16] = test system: Lichtheimia corymbifera CCM 8077; test: Antifungal microdilution broth MIC, LC
[17] = test system: Trichophyton interdigitale CCM 8377, ATCC 9533; test: Antifungal microdilution broth MIC, TI; conditions: Trichophyton interdigitale
[18] = test system: Aspergillus flavus CCM 8363; test: Antifungal microdilution broth MIC, AFla
[19] = test system: Klebsiella pneumoniae CCM 4415, ATCC 10031; test: Antibacterial microdilution broth MIC, KP
[20] = Calculated from MIC (μg/mL), read-out: MIC Mtb H37Ra
[21] = ATCC204305, 24 h, read-out: MIC AF 24h
[22] = ATCC204305, 48 h, read-out: MIC AF 48h
[23] = CCM8077, 24 h, read-out: MIC LC 24h
[24] = CCM8077, 48 h, read-out: MIC LC 48h
[25] = CCM8363, 24 h, read-out: MIC AFla 24h
[26] = CCM8363, 48 h, read-out: MIC AFla 48h

Structure (SMILES)	MIC [2] [µg/mL]	MIC [3] [µg/mL]	IC50 (HepG2 cell line) [µM]	MIC ([4]; 24 h, read-out: MIC SA 24h) [µM]	MIC ([4]; 48 h, read-out: MIC SA 48h) [µM]	MIC ([5]; 24 h, read-out: MIC MRSA 24h) [µM]	MIC ([5]; 48 h, read-out: MIC MRSA 48h) [µM]	MIC ([6]; 24 h, read-out: MIC SE 24h) [µM]	MIC ([6]; 48 h, read-out: MIC SE 48h) [µM]	MIC ([7]; 24 h, read-out: MIC EF 24h) [µM]	MIC ([7]; 48 h, read-out: MIC EF 48h) [µM]	MIC ([8]; 24 h, read-out: MIC EC 24h) [µM]	MIC ([8]; 48 h, read-out: MIC EC 48h) [µM]	MIC ([9]; 24 h, read-out: MIC ACI 24h) [µM]	MIC ([9]; 48 h, read-out: MIC ACI 48h) [µM]	MIC ([10]; 24 h, read-out: MIC PA 24h) [µM]	MIC ([10]; 48 h, read-out: MIC PA 48h) [µM]	MIC ([11]; 24 h, read-out: MIC CA 24h) [µM]	MIC ([11]; 48 h, read-out: MIC CA 48h) [µM]	MIC ([12]; 24 h, read-out: MIC CK 24h) [µM]	also measured
O=C(Cc1ccc(C(F)(F)F)cc1)Nc1ccc(Cl)cn1 [Compound 29]	> 500	> 500	> 50	> 500	> 500	> 500	> 500	250 (≈ 78.7 µg/mL)	250 (≈ 78.7 µg/mL)	> 500	> 500	> 500	> 500	> 500	> 500	> 500	> 500	> 500	> 500	> 500	MIC [1, 20]: 397 µM; MIC ([1]; read-out: MIC Mtb H37Ra): 125 µg/mL; MIC ([12]; 48 h, read-out: MIC CK 48h): > 500 µM; MIC ([13]; 24 h, read-out: MIC CP 24h): > 500 µM; MIC ([13]; 48 h, read-out: MIC CP 48h): > 500 µM; MIC ([14]; 24 h, read-out: MIC CT 24h): > 500 µM; MIC ([14]; 48 h, read-out: MIC CT 48h): > 500 µM; MIC [15, 21]: > 500 µM; MIC [15, 22]: > 500 µM; MIC [16, 23]: > 500 µM; MIC [16, 24]: > 500 µM; MIC ([17]; 72 h, read-out: MIC TI 72h): > 500 µM; MIC ([17]; 120 h, read-out: MIC TI 120h): > 500 µM; MIC [18, 25]: > 500 µM; MIC [18, 26]: > 500 µM; MIC KP 24h [19]: > 500 µM; MIC KP 48h [19]: > 500 µM
O=C(Cc1ccc(F)cc1)Nc1ccccn1 [Compound 31]	62.5 (≈ 271 µM)	250 (≈ 1090 µM)	517	500 (≈ 115 µg/mL)	> 500	> 500	> 500	250 (≈ 57.6 µg/mL)	> 500	> 500	> 500	> 500	> 500	> 500	> 500	> 500	> 500	> 500	> 500	500 (≈ 115 µg/mL)	MIC [1, 20]: 543 µM; MIC ([1]; read-out: MIC Mtb H37Ra): 125 µg/mL; MIC ([12]; 48 h, read-out: MIC CK 48h): 500 µM (≈ 115 µg/mL); MIC ([13]; 24 h, read-out: MIC CP 24h): 500 µM (≈ 115 µg/mL); MIC ([13]; 48 h, read-out: MIC CP 48h): > 500 µM; MIC ([14]; 24 h, read-out: MIC CT 24h): > 500 µM; MIC ([14]; 48 h, read-out: MIC CT 48h): > 500 µM; MIC [15, 21]: > 500 µM; MIC [15, 22]: > 500 µM; MIC [16, 23]: > 500 µM; MIC [16, 24]: > 500 µM; MIC ([17]; 72 h, read-out: MIC TI 72h): > 500 µM; MIC ([17]; 120 h, read-out: MIC TI 120h): > 500 µM; MIC [18, 25]: > 500 µM; MIC [18, 26]: > 500 µM; MIC KP 24h [19]: > 500 µM; MIC KP 48h [19]: > 500 µM
O=C(Cc1ccc(F)cc1)Nc1ccc(Cl)cn1 [Compound 32]	62.5 (≈ 236 µM)	500 (≈ 1890 µM)	> 250	> 500	> 500	> 500	> 500	125 (≈ 33.1 µg/mL)	125 (≈ 33.1 µg/mL)	> 500	> 500	> 500	> 500	> 500	> 500	> 500	> 500	> 500	> 500	> 500	MIC ([1]; read-out: MIC Mtb H37Ra (μM)): 59 µM; MIC ([1]; read-out: MIC Mtb H37Ra (μg/mL)): 15.6 µg/mL; MIC ([12]; 48 h, read-out: MIC CK 48h): > 500 µM; MIC ([13]; 24 h, read-out: MIC CP 24h): > 500 µM; MIC ([13]; 48 h, read-out: MIC CP 48h): > 500 µM; MIC ([14]; 24 h, read-out: MIC CT 24h): > 500 µM; MIC ([14]; 48 h, read-out: MIC CT 48h): > 500 µM; MIC [15, 21]: > 500 µM; MIC [15, 22]: > 500 µM; MIC [16, 23]: > 500 µM; MIC [16, 24]: > 500 µM; MIC ([17]; 72 h, read-out: MIC TI 72h): > 500 µM; MIC ([17]; 120 h, read-out: MIC TI 120h): > 500 µM; MIC [18, 25]: > 500 µM; MIC [18, 26]: > 500 µM; MIC KP 24h [19]: > 500 µM; MIC KP 48h [19]: > 500 µM
